Data from patent US8592422B2, “Bicyclic triazole and pyrazole lactams as allosteric modulators of mGluR5 receptors” (Vanderbilt University, priority 2010, dated 2013).

Biological target: T1, human mGluR5a receptor (Homo sapiens, UniProt P41594)
T1 construct: cDNA subcloned into pcDNA3.1(-)
Assay: Cell-based functional Ca2+ mobilization assay (FDSS), potentiation of glutamate EC20 response
Conditions: for pEC50 / EC50: HEK cells transfected with human mGluR5 (H10H or H12H), in presence of EC20 glutamate; for EC50: read-out: EC50; for Emax (%) / Emax: maximum % effect in concentration-response curve, as percent of response to maximally effective glutamate
Description: Human embryonic kidney (HEK) cells transfected with rat mGluR5 were plated in clear bottom assay plates for assay in a Functional Drug Screening System (FDSS). In the alternative assay, HEK cells transfected with human mGluR5 were plated for assay in the FDSS. In some cases the HEK cells transfected with human mGluR5 were the H10H cell line. Alternatively, the HEK cells transfected with human mGluR5 were the H12H cell line. […] The cells were loaded with a Ca^2+-sensitive fluorescent dye (e.g., Fluo-4), and the plates were washed and placed in the FDSS instrument. After establishment of a fluorescence baseline for twelve seconds, the compounds of the present invention were added to the cells, and the response in cells was measured. Alternatively, in various further aspects, after establishment of a fluorescence baseline for about three seconds, the compounds of the present invention were added to the cells, and the response in cells was measured. Five minutes later, an mGluR5 agonist (e.g., glutamate, 3,5-dihydroxyphenylglycine, or quisqualate) was added to the cells, and the response of the cells was measured.
The above described assay operated in two modes. In the first mode, a range of concentrations of the present compounds were added to cells, followed by a single fixed concentration of agonist. If a compound acted as a potentiator, an EC50 value for potentiation and a maximum extent of potentiation by the compound at this concentration of agonist was determined by non-linear curve fitting. In the second mode, several fixed concentrations of the present compounds were added to various wells on a plate, followed by a range of concentrations of agonist for each concentration of present compound; the EC50 values for the agonist at each concentration of compound were determined by non-linear curve fitting. A decrease in the EC50 value of the agonist with increasing concentrations of the present compounds (a leftward shift of the agonist concentration-response curve) is an indication of the degree of mGluR5 potentiation at a given concentration of the present compound. An increase in the EC50 value of the agonist with increasing concentrations of the present compounds (a rightward shift of the agonist concentration-response curve) is an indication of the degree of mGluR5 antagonism at a given concentration of the present compound. The second mode also indicates whether the present compounds also affect the maximum response to mGluR5 to agonists.
The mGluR5 activity was determined using the metabotropic glutamate receptor activity assays in human embryonic kidney cells as described herein, wherein the human embryonic kidney cells were transfected with human mGluR5. The compounds in Table 1 were synthesized with methods identical or analogous to those shown herein. The requisite starting materials were commercially available, described in the literature, or readily synthesized by one skilled in the art of organic synthesis. The compound number given in Table I corresponds to the compound number in Table II and the structure given therein.
Human mGluR5a cDNA in pCMV6-XL6 mammalian expression plasmid was purchased from OriGene Technologies, Inc. (catalogue number SC326357) and subcloned into pcDNA3.1(−). Human embryonic kidney (HEK) 293A cells were then transfected with human mGluR5a pcDNA3.1(−) using LipofectAmine-2000 (Invitrogen) and monoclones were selected and tested for functional response using a Ca^2+ mobilization assay. Monoclones were named for the species (“H” for human) plus the location on the plate (e.g. “10H”).
HEK cells transfected with the human mGluR5a receptor (H10H or H12H cell line) were plated at 15,000 cells/well in clear-bottomed poly-D-lysine-coated assay plates (BD Falcon) in glutamate-glutamine-free growth medium and incubated overnight at 37° C. and 5% CO2.

T1 sequence (P41594 21-1180 isoform P41594-2 limits assumed): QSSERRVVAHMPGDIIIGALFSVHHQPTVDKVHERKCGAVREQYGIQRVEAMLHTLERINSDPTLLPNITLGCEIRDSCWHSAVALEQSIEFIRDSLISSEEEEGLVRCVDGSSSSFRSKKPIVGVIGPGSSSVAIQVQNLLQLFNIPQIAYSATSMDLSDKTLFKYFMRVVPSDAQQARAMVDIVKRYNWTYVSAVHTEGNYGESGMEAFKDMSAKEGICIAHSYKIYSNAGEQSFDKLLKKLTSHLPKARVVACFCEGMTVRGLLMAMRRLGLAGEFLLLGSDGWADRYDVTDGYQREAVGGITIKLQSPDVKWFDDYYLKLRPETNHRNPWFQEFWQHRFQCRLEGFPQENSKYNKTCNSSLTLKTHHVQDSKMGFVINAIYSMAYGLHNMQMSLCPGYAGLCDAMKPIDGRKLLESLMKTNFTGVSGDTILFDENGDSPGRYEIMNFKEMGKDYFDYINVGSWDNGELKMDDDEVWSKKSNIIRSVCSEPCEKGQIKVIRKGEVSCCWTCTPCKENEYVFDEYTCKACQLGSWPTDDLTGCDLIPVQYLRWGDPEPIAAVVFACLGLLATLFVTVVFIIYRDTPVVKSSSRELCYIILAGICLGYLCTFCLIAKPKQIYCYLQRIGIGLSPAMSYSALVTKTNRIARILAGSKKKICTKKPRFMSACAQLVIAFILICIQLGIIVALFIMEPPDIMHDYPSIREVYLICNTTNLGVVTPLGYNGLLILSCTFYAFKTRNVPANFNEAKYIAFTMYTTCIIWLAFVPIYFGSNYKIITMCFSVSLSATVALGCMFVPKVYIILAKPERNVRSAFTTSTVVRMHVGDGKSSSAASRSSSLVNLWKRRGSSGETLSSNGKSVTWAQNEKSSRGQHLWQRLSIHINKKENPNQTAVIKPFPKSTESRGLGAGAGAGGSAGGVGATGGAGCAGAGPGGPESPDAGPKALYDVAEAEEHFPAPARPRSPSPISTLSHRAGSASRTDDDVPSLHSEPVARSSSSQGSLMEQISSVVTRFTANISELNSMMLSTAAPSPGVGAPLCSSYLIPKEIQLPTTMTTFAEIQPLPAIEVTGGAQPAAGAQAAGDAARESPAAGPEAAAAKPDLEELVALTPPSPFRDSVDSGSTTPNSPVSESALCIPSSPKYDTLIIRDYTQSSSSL

SMILES	pEC50	EC50 [nM]	Emax (%)	Emax [%]
COc1nc(N2CCn3nc(COc4ccccc4)cc3C2=O)ccc1F [Example 73]	7.64	23	67	
COc1cc(OC)nc(N2CCn3nc(COc4ccccc4)cc3C2=O)n1 [Example 127]	6.68	210	63	
COc1cncc(N2CCn3nc(COc4ccc(F)cc4)cc3C2=O)n1 [Example 231]	6.92	110	67	
COc1cncnc1N1CCn2nc(COc3ccccc3)cc2C1=O [Example 118]	5.69	2000	67	
COc1cncc(N2CCn3nc(COc4ccccc4)cc3C2=O)n1 [Example 112]	6.98	105	69	
CC1CN(CC2CC2)C(=O)c2cc(COc3ccccc3)nn21 (single isomer, unassigned) [Example 128]	6.85	141	66	
Cc1cccc(N2CCn3nc(COc4ccc(F)cc4)cc3C2=O)c1 [Example 224]	7.02	95	72	
Cc1cccc(N2CCn3nc(COc4ccccc4)cc3C2=O)c1C [Example 56]	7.62	24	69	
COc1cnnc(N2CCn3nc(COc4ccccc4)cc3C2=O)c1 [Example 125]		> 10000		48
CC(C)c1cccc(N2CCn3nc(COc4ccccn4)cc3C2=O)n1 [Example 207]	6.36	437	69	
CC1CN(c2ccc(F)cn2)C(=O)c2cc(COc3ccccc3)nn21 (single isomer, unassigned) [Example 132]	7.00	100	68	
Cc1cc(OCc2cc3n(n2)CCN(c2ccc(F)cc2)C3=O)ncn1 [Example 196]	<5.00	> 10000	37	
O=C1c2cc(COc3ccccc3)nn2CCN1c1ncccc1F [Example 81]	6.26	550	67	
Cc1cccc(OCc2cc3n(n2)CCN(c2ccc(F)cc2)C3=O)n1 [Example 173]	<5.00	> 10000	31	
CC1CN(c2ccc(F)cc2)C(=O)c2cc(COc3ccccc3)nn21 (single isomer, unassigned) [Example 130]	7.08	83	71	
Cc1ccc(N2CCn3nc(COc4ccccc4)cc3C2=O)cc1 [Example 49]	7.09	81	64	
COc1nc(C)cc(N2CCn3nc(COc4ccccc4)cc3C2=O)n1 [Example 98]	6.13	741	63	
COc1ccc(N2CCn3nc(COc4ccccc4)cc3C2=O)cc1 [Example 50]	6.92	120	58	
Cc1cc(OCc2cc3n(n2)CCN(c2ccc(F)cc2)C3=O)ncc1F [Example 180]	5.77	1700	53	
Cc1cccc(N2CCn3nc(COc4ccccc4)cc3C2=O)c1 [Example 48]	7.09	81	65	
Cc1ccc(N2CCn3nc(COc4ccccc4)cc3C2=O)cc1F [Example 62]	7.27	53	60	
CC(C)CN1CCn2nc(COc3ccccc3)cc2C1=O [Example 26]	6.98	105	75	
Cc1cccc(OCc2cc3n(n2)CCN(CC2CC2)C3=O)c1 [Example 168]	5.18	6610	30	
Cc1cc(F)ccc1N1CCn2nc(COc3ccccc3)cc2C1=O [Example 60]	7.40	40	66	
CN1CCn2nc(COc3ccccc3)cc2C1=O [Example 2]	5.87	1350	72	
O=C1c2cc(COc3ccncc3)nn2CCN1c1ccc(F)cn1 [Example 176]	5.75	1780	64	
COc1cnc(C)nc1N1CCn2nc(COc3ccccc3)cc2C1=O [Example 119]		2300		72

The next lines start with the values.

pEC50	EC50 [nM]	Emax (%)	Emax [%]	SMILES
6.59	260	66		COc1cc(N2CCn3nc(COc4ccccc4)cc3C2=O)ncn1 [Example 351]
<4.52	> 30200	29		O=c1[nH]ccn2nc(COc3ccccc3)cc12 [Example 378]
	54		71	O=C1c2cc(COc3ccccc3)nn2CCN1c1cnc2ccccc2c1 [Example 362]
7.05	89	66		O=C1c2cc(COc3ccccc3)nn2C(F)CN1c1ccc(F)cc1 (racemic) [Example 271]
6.07	850	62		Cn1cc2ccc(N3CCn4nc(COc5ccccc5)cc4C3=O)cc2n1 [Example 366]
6.03	933	70		COCC1Cn2nc(COc3ccccc3)cc2C(=O)N1c1ccc(F)cc1 (stereo not shown) [Example 267]
	1200		65	CN(C)c1cccnc1N1CCn2nc(COc3ccccc3)cc2C1=O [Example 289]
<5.00	> 10000	52		CC1CNC(=O)c2cc(COc3ccccc3)nn21 (racemic) [Example 250]
6.13	741	68		Nc1cccc(N2CCn3nc(COc4ccccc4)cc3C2=O)n1 [Example 285]
6.75	178	74		CN(C)c1cccc(N2CCn3nc(COc4ccccn4)cc3C2=O)n1 [Example 313]
6.94	115	65		O=C1c2cc(COc3ccccc3)nn2CC(CF)N1c1ccc(F)cc1 (stereo not shown) [Example 266]
5.90	1260	68		CN(C)c1ccnc(N2CCn3nc(COc4ccccc4)cc3C2=O)n1 [Example 276]
7.33	47	56		Cc1cc(N(C)C)nc(N2CCn3nc(COc4ccccc4)cc3C2=O)c1 [Example 290]
6.64	230	68		Cc1ccc2ccc(N3CCn4nc(COc5ccccc5)cc4C3=O)cc2n1 [Example 369]
	3400		72	O=C1c2cc(COc3ccccc3)nn2CCN1c1cnc2cnccn12 [Example 374]
<4.52	> 30200	25		CC(Oc1ccccc1)c1cc2n(n1)CCN(CC1CC1)C2=O (racemic) [Example 257]
<5.00	> 10000	27		O=C1c2cc(COc3ccccc3)nn2CC(CO)N1c1ccc(F)cc1 (stereo not shown) [Example 268]
7.34	46	75		O=C1c2cc(COc3ccccc3)nn2CCN1c1ccc2nccc(Cl)c2c1 [Example 364]
